Measurements reported in US10052336B2, “Pulmonary interstitial pneumonia treatment” (priority 2012, dated 2018).

Columns and labels:
[1] = system: non-specific interstitial pneumonitis (NSIP); test: Inventor's own treatment course for non-specific interstitial pneumonitis, tracked by CRP level and symptoms; type: in vivo, human; settings: tapered-down doses of prednisone from 30-40 mg/day
Method: NSIP is a sub-type of Idiopathic Pulmonary Fibrosis (IPF), comprising a group of interstitial pneumonias. […] Following the NSIP diagnosis, my tapered prednisone treatments were supplemented with 100 mg/day azathioprine and, subsequently, with 1800 mg/day N-Acetyl Cysteine (NAC).

[2] = system: idiopathic pulmonary fibrosis; settings: as compared with placebo; Martinez F. J. et al., N Engl J Med 2014; cited from earlier work

SMILES | symptoms (dry cough, dyspnea, fever) [1] | systemic inflammation as measured by CRP level ([1]; eventually approaching and exceeding levels in the teens of mg/l) | preservation of FVC [i.e., lung capacity] [2]
C[C@]12C=CC(=O)C=C1CC[C@@H]1[C@@H]2C(=O)C[C@@]2(C)[C@H]1CC[C@]2(O)C(=O)CO [prednisone] | continued symptoms to worsen | continued to worsen | –
CC(=O)N[C@@H](CS)C(=O)O [acetylcysteine, N-Acetyl Cysteine] | – | – | no significant benefit
